# Data as given in patent US4563472A, “Iodoallyl and iodopropargyl substituted tetrazoles and anti-microbial compositions thereof” (Meiji Seika Kaisha, Ltd., priority 1982, dated 1986).
# Read-outs that look alike come from different tables or passages of the source.
# What was measured:
# [1] = tested on: Cryptococcus neoformans Cr-1; assay: Antifungal Activity (in Medicinal Field), MIC; assay type: cell-based; details: CR1, read-out: Minimal Inhibitory Conc. (MIC)
# [2] = tested on: Aspergillus fumigatus Saito; assay: Antifungal Activity (in Medicinal Field), MIC; assay type: cell-based; details: read-out: Minimal Inhibitory Conc. (MIC)
# [3] = tested on: Trichophyton metagrophytes 530324; assay: Antifungal Activity (in Medicinal Field), MIC; assay type: cell-based
# Candida alubicans GA-24 = assay: Antifungal Activity (in Medicinal Field), MIC; assay type: cell-based
# [4] = tested on: Trichophyton interdigitale; assay: Antifungal Activity (in Medicinal Field), MIC; assay type: cell-based; details: read-out: Minimal Inhibitory Conc. (MIC)
# [5] = tested on: Cladosporium herbarum IAM F-517; assay: Antifungal Activity (in Industrial Field), MIC; assay type: cell-based; details: IAMF517, read-out: Minimal Inhibitory Conc. (MIC)
# Mucor spinescens IAM Mu3 = assay: Antifungal Activity (in Industrial Field), MIC; assay type: cell-based; details: IAMMU3, read-out: Minimal Inhibitory Conc. (MIC)
# [6] = tested on: Trichoderma T-1 ATCC 9645; assay: Antifungal Activity (in Industrial Field), MIC; assay type: cell-based; details: ATCC9645, read-out: Minimal Inhibitory Conc. (MIC)
# [7] = tested on: Chaetomium globosum ATCC 6205; assay: Antifungal Activity (in Industrial Field), MIC; assay type: cell-based; details: ATCC6205, read-out: Minimal Inhibitory Conc. (MIC)
# [8] = tested on: Aspergillus fumigatus IAM 2621; assay: Antifungal Activity (in Industrial Field), MIC; assay type: cell-based; details: IAM2621, read-out: Minimal Inhibitory Conc. (MIC)
# [9] = tested on: Pullularia pullulans IAM F-24; assay: Antifungal Activity (in Industrial Field), MIC; assay type: cell-based
# [10] = tested on: Rhizopus nigricans S.N. 32; assay: Antifungal Activity (in Industrial Field), MIC; assay type: cell-based; details: Rhizopus stolonifer, read-out: Minimal Inhibitory Conc. (MIC)
# [11] = tested on: Aspergillus flavus ATCC 6275; assay: Antifungal Activity (in Industrial Field), MIC; assay type: cell-based; details: ATCC6275, read-out: Minimal Inhibitory Conc. (MIC)
# [12] = tested on: Aspergillus terreus PQMD 82 j; assay: Antifungal Activity (in Industrial Field), MIC; assay type: cell-based; details: PQMD82J, read-out: Minimal Inhibitory Conc. (MIC)
# [13] = tested on: Penicillium luteum ATCC 9644; assay: Antifungal Activity (in Industrial Field), MIC; assay type: cell-based; details: Ascospirella lutea, ATCC9644, read-out: Minimal Inhibitory Conc. (MIC)
# [14] = tested on: Colletotrichum lagenarium; assay: Antibacterial and Antifungal Activities (in Agricultural Field), MIC; assay type: cell-based; details: Colletotrichum orbiculare, read-out: Minimal Inhibitory Conc. (MIC)
# Pellicularia filamentosa = assay: as above; assay type: cell-based; details: read-out: Minimal Inhibitory Conc. (MIC)
# Cochliobolus miyabeanus = assay: as above; assay type: cell-based; details: Bipolaris oryzae, read-out: Minimal Inhibitory Conc. (MIC)
# [15] = tested on: Xanthomonas campestris pv. citri; assay: as above; assay type: cell-based; details: read-out: Minimal Inhibitory Conc. (MIC)
# Diaporithe citri = assay: as above; assay type: cell-based; details: read-out: Minimal Inhibitory Conc. (MIC)
# [16] = tested on: Pseudomonas syringae pv. tabaci; assay: as above; assay type: cell-based; details: read-out: Minimal Inhibitory Conc. (MIC)
# [17] = tested on: Fusarium oxysporum f. lycopersici; assay: as above; assay type: cell-based; details: read-out: Minimal Inhibitory Conc. (MIC)
# Botrytis cinerea = assay: as above; assay type: cell-based; details: read-out: Minimal Inhibitory Conc. (MIC)
# Alternaria kikuchiana = assay: as above; assay type: cell-based; details: read-out: Minimal Inhibitory Conc. (MIC)
# [18] = tested on: Corynebacterium michiganense; assay: as above; assay type: cell-based; details: Clavibacter michiganensis; Corynebacterium michiganense; read-out: Minimal Inhibitory Conc. (MIC)
# Glomerella cingulata = assay: as above; assay type: cell-based; details: Colletotrichum gloeosporioides, read-out: Minimal Inhibitory Conc. (MIC)
# Gibberella fujikuroi = assay: as above; assay type: cell-based; details: Fusarium fujikuroi, read-out: Minimal Inhibitory Conc. (MIC)
# [19] = tested on: Xanthomonas campestris pv. oryzae; assay: microbe, parasite or virus in culture; assay type: cell-based; details: read-out: Minimal Inhibitory Conc. (MIC)
# Phricularia oryzae = assay: Antibacterial and Antifungal Activities (in Agricultural Field), MIC; assay type: cell-based; details: read-out: Minimal Inhibitory Conc. (MIC)
# Erwinia carotovora = assay: as above; assay type: cell-based; details: Pectobacterium carotovorum, read-out: Minimal Inhibitory Conc. (MIC)
# [20] = tested on: Trichophyton mentagrophytes; assay: Therapeutic experiment on trichophytosis in guinea pigs, visual observation; assay type: in vivo, guinea pigs (White Hartly-strain); details: 1% preparation, 0.25 ml once per day, 8 consecutive days
# [21] = tested on: Trichophyton mentagrophytes; assay: Reducing culture positive rate of skin slices from infected guinea pigs; assay type: in vivo, guinea pigs (White Hartly-strain); design: concentration or dose not given beside the values; details: after 8 days application, non-treated 100
# [22] = Trichophyton metagrophytes 530324, read-out: Minimal Inhibitory Conc. (MIC)
# [23] = GA24, Candida alubicans GA-24, read-out: Minimal Inhibitory Conc. (MIC)
compound,measurement,setting,value
"Cc1nnnn1CC(I)=C(I)I [1-(2',3',3'-triiodoallyl)-5-methyltetrazole]",MIC,[1],6.25 mg/L
same,MIC,[2],0.78 mg/L
same,MIC,[3]; [22],0.78 mg/L
same,MIC,Candida alubicans GA-24; [23],3.12 mg/L
same,MIC,[4],0.78 mg/L
IC#CCn1ncnn1 [2-(1'-iodopropyn-3'-yl)tetrazole],MIC,[5],3.13 mg/L
same,MIC,[1],0.78 mg/L
same,MIC,Mucor spinescens IAM Mu3,3.13 mg/L
same,MIC,[6],3.13 mg/L
same,MIC,[2],1.56 mg/L
same,MIC,[7],25 mg/L
same,MIC,[8],25 mg/L
same,MIC,"[9]; IAMF24, Pullularia pullulans IAM F-24, read-out: Minimal Inhibitory Conc. (MIC)",6.25 mg/L
same,MIC,"[3]; Trichophyton, 530324, read-out: Minimal Inhibitory Conc. (MIC)",1.56 mg/L
same,MIC,[10],6.25 mg/L
same,MIC,[11],6.25 mg/L
same,MIC,[12],0.78 mg/L
same,MIC,"Candida alubicans GA-24; Candida, GA24, read-out: Minimal Inhibitory Conc. (MIC)",3.12 mg/L
same,MIC,[13],3.13 mg/L
same,MIC,[4],1.56 mg/L
"CC(=O)Nc1nnn(CC(I)=C(I)I)n1 [2-(2',3',3'-triiodoallyl)-5-acetylaminotetrazole]",MIC,[1],100 mg/L
same,MIC,[2],12.5 mg/L
same,MIC,[3]; [22],3.12 mg/L
same,MIC,Candida alubicans GA-24; [23],100 mg/L
same,MIC,[4],3.12 mg/L
"Cc1nnn(CC(I)=C(I)I)n1 [2-(2',3',3'-triiodoallyl)-5-methyltetrazole]",MIC,[14],0.78 mg/L
same,MIC,[5],6.25 mg/L
same,MIC,Pellicularia filamentosa,> 100 mg/L
same,MIC,Cochliobolus miyabeanus,6.25 mg/L
same,MIC,[1],1.56 mg/L
same,MIC,Mucor spinescens IAM Mu3,1.56 mg/L
same,MIC,[6],6.25 mg/L
same,MIC,[15],50 mg/L
same,MIC,Diaporithe citri,0.78 mg/L
same,MIC,[2],0.19 mg/L
same,MIC,[16],> 100 mg/L
same,MIC,[17],3.13 mg/L
same,MIC,Botrytis cinerea,0.39 mg/L
same,MIC,[7],6.25 mg/L
same,MIC,Alternaria kikuchiana,1.56 mg/L
same,MIC,[8],1.56 mg/L
same,MIC,[18],25 mg/L
same,MIC,Glomerella cingulata,0.39 mg/L
same,MIC,"[9]; IAMF24, read-out: Minimal Inhibitory Conc. (MIC)",3.13 mg/L
same,MIC,[3]; [22],0.19 mg/L
same,MIC,[10],1.56 mg/L
same,MIC,Gibberella fujikuroi,0.78 mg/L
same,MIC,[11],1.56 mg/L
same,MIC,[19],6.25 mg/L
same,MIC,[12],0.39 mg/L
same,MIC,Candida alubicans GA-24; [23],0.78 mg/L
same,MIC,[13],6.25 mg/L
same,MIC,Phricularia oryzae,3.13 mg/L
same,MIC,[4],0.19 mg/L
same,MIC,Erwinia carotovora,> 100 mg/L
"IC(I)=C(I)Cn1nnc(-c2ccccc2)n1 [2-(2',3',3'-triiodoallyl)-5-phenyltetrazole]",MIC,[1],12.5 mg/L
same,MIC,[2],6.25 mg/L
same,MIC,[3]; [22],1.56 mg/L
same,MIC,Candida alubicans GA-24; [23],12.5 mg/L
same,MIC,[4],3.12 mg/L
"Clc1ccccc1C(c1ccccc1)(c1ccccc1)n1ccnc1 [chlotrimazol, 1-(O-chloro-α,α-diphenylbenzyl)imidazole, reference compound]",Therapeutic Effect: Desquamation,[20],effective
same,Therapeutic Effect: Thickening,[20],effective
same,Reducing Culture Positive Rate,[21]; 3 days culture,75%
same,Reducing Culture Positive Rate,[21]; 5 days culture,96%
same,Reducing Culture Positive Rate,[21]; 7 days culture,96%
"O=[N+]([O-])c1c(Cl)cccc1-c1c[nH]cc1Cl [pyrrolnitrin, 3-chloro-4-(2'-nitro-3'-chlorophenyl)pyrrole, reference compound]",Therapeutic Effect: Thickening,[20],effective
same,Reducing Culture Positive Rate,[21]; 3 days culture,62%
same,Reducing Culture Positive Rate,[21]; 5 days culture,87%
same,Reducing Culture Positive Rate,[21]; 7 days culture,87%
